Results from patent US20200270309A1, “MALEIMIDE GROUP-MODIFIED ANGIOGENESIS INHIBITOR HM-1 AND USE THEREOF” (NANJING ANJI BIOLOGICAL TECHNOLOGY CO., LTD, priority 2017, published 2020).
Where two headings read alike, the source gives them in different places. Peptide text beside a SMILES is read from it. * marks the point of attachment. Hexanoyl(6-maleimido) = O=C1C=CC(=O)N1CCCCCC(=O)*; Propanoyl(3-maleimido) = O=C1C=CC(=O)N1CCC(=O)*; Maleimidoacetyl = O=C1C=CC(=O)N1CC(=O)*

Assay: Half-lives and pharmacokinetic parameters of polypeptides vs HM-1
Parameters: AUC0-∞: concentration or dose not given beside the values
Details: in vivo
[1] = read-out: T1/2β (half-life) (converted)

SMILES	AUC0-∞ [mg/L/h]	half-life [1] [h]	AUC(0-inf) [µg·h/mL]	MRT inf [h]	clearance [L/h/kg]	half-life [h]	AUC(0-inf) (read-out: AUC0-∞) [µg·h/mL]	clearance (read-out: CL (converted)) [L/h/kg]	MRT inf (read-out: MRT0-∞) [h]
CSCC[C@H](NC(=O)[C@H](Cc1c[nH]cn1)NC(=O)[C@H](CCC(N)=O)NC(=O)[C@H](CCCNC(=N)N)NC(=O)CCN1C(=O)C=CC1=O)C(=O)N[C@@H](Cc1ccccc1)C(=O)N[C@@H](CO)C(=O)N[C@@H](Cc1c[nH]c2ccccc12)C(=O)N[C@H](C(=O)N[C@@H](CC(C)C)C(=O)N[C@@H](C)C(=O)N[C@@H](CCCNC(=N)N)C(=O)N[C@@H](CC(N)=O)C(=O)N[C@@H](CC(=O)O)C(=O)N[C@@H](CCC(N)=O)C(=O)N[C@@H](CCC(=O)O)C(=O)N[C@@H](CCC(=O)O)C(=O)N[C@@H](CCCNC(=N)N)C(=O)NCC(=O)N[C@@H](CC(=O)O)C(=O)O)C(C)C [P1] ({Propanoyl(3-maleimido)}-RQHMFSWVLARNDQEERGD-OH; C-terminus assumed)	0.0336 ± 0.0083	36.96 ± 0.25	–	–	–	–	–	–	–
CSCC[C@H](NC(=O)[C@H](Cc1c[nH]cn1)NC(=O)[C@H](CCC(N)=O)NC(=O)[C@H](CCCNC(=N)N)NC(=O)CCCCCN1C(=O)C=CC1=O)C(=O)N[C@@H](Cc1ccccc1)C(=O)N[C@@H](CO)C(=O)N[C@@H](Cc1c[nH]c2ccccc12)C(=O)N[C@H](C(=O)N[C@@H](CC(C)C)C(=O)N[C@@H](C)C(=O)N[C@@H](CCCNC(=N)N)C(=O)N[C@@H](CC(N)=O)C(=O)N[C@@H](CC(=O)O)C(=O)N[C@@H](CCC(N)=O)C(=O)N[C@@H](CCC(=O)O)C(=O)N[C@@H](CCC(=O)O)C(=O)N[C@@H](CCCNC(=N)N)C(=O)NCC(=O)N[C@@H](CC(=O)O)C(=O)O)C(C)C [P2] ({Hexanoyl(6-maleimido)}-RQHMFSWVLARNDQEERGD-OH; C-terminus assumed)	0.0350 ± 0.0076	35.48 ± 0.3	–	–	–	–	–	–	–
CC[C@H](C)[C@H](NC(=O)[C@H](Cc1c[nH]cn1)NC(=O)[C@H](CCC(N)=O)NC(=O)[C@H](CCCNC(=N)N)NC(=O)CCN1C(=O)C=CC1=O)C(=O)N[C@@H](Cc1ccccc1)C(=O)N1CCC[C@H]1C(=O)N[C@@H](CO)C(=O)N[C@@H](Cc1c[nH]c2ccccc12)C(=O)N[C@@H](Cc1c[nH]c2ccccc12)C(=O)N[C@@H](Cc1ccccc1)C(=O)N[C@@H](Cc1c[nH]c2ccccc12)C(=O)N[C@@H](Cc1ccc(O)cc1)C(=O)N[C@@H](Cc1ccc(O)cc1)C(=O)N1CCC[C@H]1C(=O)N[C@@H](CC(=O)O)C(=O)N[C@@H](CCCNC(=N)N)C(=O)N[C@@H](CC(C)C)C(=O)N[C@@H](CCCCN)C(=O)N[C@@H](CCSC)C(=O)N[C@@H](CCCNC(=N)N)C(=O)NCC(=O)N[C@@H](CC(=O)O)C(=O)O [P3] ({Propanoyl(3-maleimido)}-RQHIFPSWWFWYYPDRLKMRGD-OH; C-terminus assumed)	0.0319 ± 0.0076	38.89 ± 0.3	–	–	–	–	–	–	–
CC[C@H](C)[C@H](NC(=O)[C@H](Cc1c[nH]cn1)NC(=O)[C@H](CCC(N)=O)NC(=O)[C@H](CCCNC(=N)N)NC(=O)CCCCCN1C(=O)C=CC1=O)C(=O)N[C@@H](Cc1ccccc1)C(=O)N1CCC[C@H]1C(=O)N[C@@H](CO)C(=O)N[C@H](C(=O)N[C@@H](Cc1c[nH]c2ccccc12)C(=O)N[C@@H](Cc1ccccc1)C(=O)N[C@@H](Cc1c[nH]c2ccccc12)C(=O)N[C@@H](Cc1ccc(O)cc1)C(=O)N[C@@H](Cc1ccc(O)cc1)C(=O)N1CCC[C@H]1C(=O)N[C@@H](CC(=O)O)C(=O)N[C@@H](CCCNC(=N)N)C(=O)N[C@@H](CC(C)C)C(=O)N[C@@H](CCCCN)C(=O)N[C@@H](CCSC)C(=O)N[C@@H](CCCNC(=N)N)C(=O)N[C@@H](CCC(=O)O)C(=O)N[C@@H](CC(=O)O)C(=O)O)[C@@H](C)O [P4] ({Hexanoyl(6-maleimido)}-RQHIFPSTWFWYYPDRLKMRED-OH; C-terminus assumed)	0.0391 ± 0.0066	31.72 ± 0.26	–	–	–	–	–	–	–
C[C@H](NC(=O)[C@H](CCCNC(=N)N)NC(=O)[C@H](CC(=O)O)NC(=O)[C@H](CCC(=O)O)NC(=O)CNC(=O)[C@H](CCCNC(=N)N)NC(=O)CCN1C(=O)C=CC1=O)C(=O)NCC(=O)NCC(=O)NCC(=O)NCC(=O)N[C@@H](CCCNC(=N)N)C(=O)NCC(=O)N[C@@H](CC(=O)O)C(=O)O [P5] ({Propanoyl(3-maleimido)}-RGEDRAGGGGRGD-OH; C-terminus assumed)	–	–	29.2 ± 7.88	52.4 ± 12.2	0.0342	36.28 ± 0.25	–	–	–
C[C@H](NC(=O)[C@H](CCCNC(=N)N)NC(=O)[C@H](CC(=O)O)NC(=O)[C@H](CCC(=O)O)NC(=O)CNC(=O)[C@H](CCCNC(=N)N)NC(=O)CCCCCN1C(=O)C=CC1=O)C(=O)NCC(=O)NCC(=O)NCC(=O)NCC(=O)N[C@@H](CCCNC(=N)N)C(=O)NCC(=O)N[C@@H](CC(=O)O)C(=O)O [P6] ({Hexanoyl(6-maleimido)}-RGEDRAGGGGRGD-OH; C-terminus assumed)	–	–	27.7 ± 7.13	49.6 ± 9.97	0.0361	34.36 ± 0.25	–	–	–
C[C@H](NC(=O)[C@H](CCCNC(=N)N)NC(=O)[C@H](CC(=O)O)NC(=O)CNC(=O)[C@H](CCCNC(=N)N)NC(=O)CCN1C(=O)C=CC1=O)C(=O)NCC(=O)NCC(=O)NCC(=O)NCC(=O)N[C@@H](CCCNC(=N)N)C(=O)NCC(=O)N[C@@H](CC(=O)O)C(=O)O [P7] ({Propanoyl(3-maleimido)}-RGDRAGGGGRGD-OH; C-terminus assumed)	–	39.63 ± 0.28	–	–	–	–	31.9 ± 7.82	0.0313	57.2 ± 13.9
C[C@H](NC(=O)[C@H](CCCNC(=N)N)NC(=O)[C@H](CC(=O)O)NC(=O)CNC(=O)[C@H](CCCNC(=N)N)NC(=O)CCCCCN1C(=O)C=CC1=O)C(=O)NCC(=O)NCC(=O)NCC(=O)NCC(=O)N[C@@H](CCCNC(=N)N)C(=O)NCC(=O)N[C@@H](CC(=O)O)C(=O)O [P8] ({Hexanoyl(6-maleimido)}-RGDRAGGGGRGD-OH; C-terminus assumed)	–	38.67 ± 0.27	–	–	–	–	31.2 ± 8.09	0.0321	55.8 ± 13.4
CC(C)[C@H](NC(=O)[C@H](C)NC(=O)CNC(=O)[C@H](CCCNC(=N)N)NC(=O)CCN1C(=O)C=CC1=O)C(=O)N[C@@H](CC(=O)O)C(=O)N[C@@H](CCCNC(=N)N)C(=O)N[C@@H](C)C(=O)NCC(=O)NCC(=O)NCC(=O)NCC(=O)N[C@@H](CCCNC(=N)N)C(=O)NCC(=O)N[C@@H](CC(=O)O)C(=O)O [P9] ({Propanoyl(3-maleimido)}-RGAVDRAGGGGRGD-OH; C-terminus assumed)	–	34.64 ± 0.3	–	–	–	–	27.9 ± 6.88	0.0358	50 ± 10.7
CC(C)[C@H](NC(=O)[C@H](C)NC(=O)CNC(=O)[C@H](CCCNC(=N)N)NC(=O)CCCCCN1C(=O)C=CC1=O)C(=O)N[C@@H](CC(=O)O)C(=O)N[C@@H](CCCNC(=N)N)C(=O)N[C@@H](C)C(=O)NCC(=O)NCC(=O)NCC(=O)NCC(=O)N[C@@H](CCCNC(=N)N)C(=O)NCC(=O)N[C@@H](CC(=O)O)C(=O)O [P10] ({Hexanoyl(6-maleimido)}-RGAVDRAGGGGRGD-OH; C-terminus assumed)	–	30.6 ± 0.31	–	–	–	–	24.6 ± 7.03	0.0406	44.1 ± 11
C[C@H](NC(=O)CNC(=O)[C@H](CCCNC(=N)N)NC(=O)CCN1C(=O)C=CC1=O)C(=O)N[C@@H](CC(=O)O)C(=O)N[C@@H](CCCNC(=N)N)C(=O)N[C@@H](C)C(=O)N[C@@H](CCC(=O)O)C(=O)N[C@@H](C)C(=O)N[C@@H](C)C(=O)N[C@@H](C)C(=O)N[C@@H](CCCCN)C(=O)N[C@@H](CCCNC(=N)N)C(=O)NCC(=O)N[C@@H](CC(=O)O)C(=O)O [P11] ({Propanoyl(3-maleimido)}-RGADRAEAAAKRGD-OH)	–	39.16 ± 0.31	–	–	–	–	31.6 ± 8.23	0.0317	56.5 ± 11.6
C[C@H](NC(=O)CNC(=O)[C@H](CCCNC(=N)N)NC(=O)CCCCCN1C(=O)C=CC1=O)C(=O)N[C@@H](CC(=O)O)C(=O)N[C@@H](CCCNC(=N)N)C(=O)N[C@@H](C)C(=O)N[C@@H](CCC(=O)O)C(=O)N[C@@H](C)C(=O)N[C@@H](C)C(=O)N[C@@H](C)C(=O)N[C@@H](CCCCN)C(=O)N[C@@H](CCCNC(=N)N)C(=O)NCC(=O)N[C@@H](CC(=O)O)C(=O)O [P12] ({Hexanoyl(6-maleimido)}-RGADRAEAAAKRGD-OH; C-terminus assumed)	–	42.24 ± 0.29	–	–	–	–	34 ± 6.88	0.0294	61 ± 10.1
C[C@H](NC(=O)CNC(=O)[C@H](CCCNC(=N)N)NC(=O)CCN1C(=O)C=CC1=O)C(=O)N[C@@H](CC(=O)O)C(=O)N[C@@H](CCCNC(=N)N)C(=O)N[C@@H](C)C(=O)NCC(=O)N[C@@H](CO)C(=O)N[C@@H](CO)C(=O)N[C@@H](CO)C(=O)N[C@@H](CO)C(=O)N[C@@H](CCCNC(=N)N)C(=O)NCC(=O)N[C@@H](CC(=O)O)C(=O)O [P13] ({Propanoyl(3-maleimido)}-RGADRAGSSSSRGD-OH; C-terminus assumed)	–	3944 ± 0.27	–	–	–	–	31.8 ± 8.09	0.0315	56.9 ± 14.2
C[C@H](NC(=O)CNC(=O)[C@H](CCCNC(=N)N)NC(=O)CCCCCN1C(=O)C=CC1=O)C(=O)N[C@@H](CC(=O)O)C(=O)N[C@@H](CCCNC(=N)N)C(=O)N[C@@H](C)C(=O)NCC(=O)N[C@@H](CO)C(=O)N[C@@H](CO)C(=O)N[C@@H](CO)C(=O)N[C@@H](CO)C(=O)N[C@@H](CCCNC(=N)N)C(=O)NCC(=O)N[C@@H](CC(=O)O)C(=O)O [P14] ({Hexanoyl(6-maleimido)}-RGADRAGSSSSRGD-OH; C-terminus assumed)	–	39.85 ± 0.31	–	–	–	–	32.1 ± 7.56	0.0311	57.5 ± 9.63
C[C@H](NC(=O)CNC(=O)[C@H](CCCNC(=N)N)NC(=O)CN1C(=O)C=CC1=O)C(=O)N[C@@H](CC(=O)O)C(=O)N[C@@H](CCCNC(=N)N)C(=O)N[C@@H](C)C(=O)NCC(=O)NCC(=O)NCC(=O)NCC(=O)N[C@@H](CCCNC(=N)N)C(=O)NCC(=O)N[C@@H](CC(=O)O)C(=O)O [X1] (Maleimidoacetyl-RGADRAGGGGRGD-OH)	–	35.99 ± 0.29	–	–	–	–	29 ± 6.94	0.0345	51.9 ± 10.2
C[C@H](NC(=O)CNC(=O)[C@H](CCCNC(=N)N)NC(=O)CCN1C(=O)C=CC1=O)C(=O)N[C@@H](CC(=O)O)C(=O)N[C@@H](CCCNC(=N)N)C(=O)N[C@@H](C)C(=O)NCC(=O)NCC(=O)NCC(=O)NCC(=O)N[C@@H](CCCNC(=N)N)C(=O)NCC(=O)N[C@@H](CC(=O)O)C(=O)O [X2] ({Propanoyl(3-maleimido)}-RGADRAGGGGRGD-OH)	–	34.51 ± 0.28	–	–	–	–	27.8 ± 7.51	0.036	49.8 ± 9.73
